This is an account of results in patent US11952365B2, “Anti-viral compounds” (Aligos Therapeutics, Inc., priority 2020, dated 2024).

The test system of data set [1] is human beta-coronavirus OC43. The data set can be described thus: microbe, parasite or virus in culture. The class given is cell-based. The conditions noted are these: OC43 in HeLa cells, 6 days at 33° C., read-out: EC50.
For data set [2], the target named is T1, 3CLpro (Severe acute respiratory syndrome coronavirus 2, UniProt P0DTD1). The data set can be described thus: SARS-CoV-2 3CLpro protease assay (duplex, SAMDI-MS). The data set is classed as biochemical. The arrangement: For the duplex assay, 3CLpro and HRV3C was added. The conditions noted are these: 30 mins preincubation, class symbols.
Data set [3] concerns SARS-CoV-2-GHB-03021/2020. The data set can be described thus: microbe, parasite or virus in culture. The data set is classed as cell-based. As to conditions: read-out: VeroE6 + CP (EC50).
Another data set concerns HeLa cells. The data set can be described thus: Cytotoxicity plates without OC43 virus (cell-titer-glo). The class given is cell-based, human. The conditions noted are these: class symbols. In a few lines:
(§1)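 Run as a virus-free counterpart of the OC43 cytopathic-effect assay. Attached HeLa cells received compound dilutions in EMEM with 2% FBS and were kept 6 days at 33 °C. Cell viability was then measured by CellTiter-Glo luminescence.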

The next data set concerns Vero E6-eGFP cells. As to conditions: read-out: VeroE6 + CP (CC50); Vero E6-eGFP cells with CP-100356, absence of virus, MTS; numeric bounds.
In another data set the target is HRV3C (Human rhinovirus 14, UniProt P03303). The data set is described as follows: HRV3C protease assay (duplex, SAMDI-MS). The data set is classed as biochemical, HRV. In short, it runs like this:
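HRV3C was preincubated 30 min with compound alongside 3CLpro at ambient temperature, then two biotinylated peptide substrates were added for 30 min. Quenching used 0.5% formic acid (final). Cleaved product was captured on neutravidin SAMDI arrays and quantified by MALDI-TOF as product/internal-standard AUC ratio; IC50 from four-parameter fit.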

The next data set deals with T2, human cathepsin L (Homo sapiens, UniProt P07711).
T2 construct: purchased R&D Systems
The data set can be described thus: cathepsin L assay. The data set is classed as biochemical. The conditions noted are these: 10 pM human cathepsin L, Z-FR-AMC 2 μM, class symbols. In short, it runs like this:
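Reactions began by adding 2 μM (final) Z-FR-AMC substrate to 10 pM human cathepsin L that had been preincubated 30 min with inhibitor. Kinetic AMC fluorescence at 355/460 nm over 30 min at 2-min intervals; four-parameter fitting gave IC50 values.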

A short description of data set [4]: in vitro. As to conditions: African green monkey, VeroE6 + CP (CC50), Vero E6-eGFP cells with CP-100356, absence of virus, MTS; numeric bounds.
Data set [5] has as its system SARS-CoV-2-GHB-03021/2020. The data set can be described thus: SARS-CoV-2 Infection Model in Huh7 Cells. The class given is cell-based. The conditions noted are these: Severe acute respiratory syndrome coronavirus 2, Huh-7, 96 h, SARS-CoV-2, day 4 p.i., MTS.
Data set [6] in a line: in vitro. As to conditions: human.
A short description of data set [7]: Cytotoxicity plates without OC43 virus (cell-titer-glo). The data set is classed as cell-based, human. The conditions noted are these: human; HeLa cells without OC43 virus, class symbols. In a few lines:
as §1

Another data set deals with SARS-CoV-2. As to conditions: cited from earlier work.
For data set [8], the target named is T1, 3CLpro. The conditions noted are these: cited from earlier work.
Where [9] appears, read: 3CLpro, read-out: SARS-Cov-2 IC50.
The mark [10] stands for this setting: HRV3C, 30 mins preincubation, class symbols, read-out: HRV IC50.
Where [11] appears, read: HRV3C, 30 mins preincubation, bound, read-out: HRV IC50.
The mark [12] stands for this setting: Betacoronavirus 1, OC43, HeLa, 144 h, bound.
Where [13] appears, read: Severe acute respiratory syndrome coronavirus 2, Vero C1008, 96 h.
The mark [14] stands for this setting: Betacoronavirus 1, OC43, HeLa, 144 h, class symbols.

Like-named read-outs stand apart in the source and are kept apart here.

“N-benzyl-3-[[(2S)-1-(1H-indole-2-carbonyl)pyrrolidin-2-yl]formamido]-2-oxo-4-[(3S)-2-oxopyrrolidin-3-yl]butanamide [Compound 3]”: the EC50 is 10 to 100 µM in data set [1] (class symbols) and more than 100 µM in data set [3]. Moreover, the half-maximal inhibitory concentration (IC50) at 3CLpro [2] (setting [9]) was in the range of 20 to 100 µM; at HRV3C (setting [10]), 2 to 20 µM. Also, the CC50 in the data set with HeLa cells is more than 10 µM; in the data set with Vero E6-eGFP cells, more than 100 µM.
For the compound `COc1cccc2[nH]c(C(=O)N3Cc4ccccc4[C@@H]3C(=O)N[C@@H](C[C@@H]3CCCNC3=O)C(=O)CO)cc12` [Compound 73_2], the EC50 in [1] (class symbols) was in the range of 10 to 100 µM. Also, the IC50 at human cathepsin L was not below 10 µM; on 3CLpro [2] (setting [9]), 2 to 20 µM; on HRV3C (setting [11]), more than 10 µM. Besides, the CC50 in the data set with HeLa cells is more than 10 µM.
For the compound `COc1cccc2[nH]c(C(=O)N3C[C@@H]4CCC[C@@H]4[C@H]3C(=O)N[C@@H](CN3CCCNC3=O)C(=O)C(=O)NC3CC3)cc12` [Compound 118], the CC50 in the data set “in vitro [4]” is more than 50 µM; in “in vitro [6]” it was more than 10 µM. Further, the EC50 in data set [1] (setting [12]) was more than 10 µM; in data set [5] (numeric bounds) it was more than 50 µM; in data set [3] (setting [13]) it was more than 50 µM. Moreover, the IC50 against human cathepsin L is not below 10 µM; on 3CLpro [2] (setting [9]), 2 to 20 µM; on HRV3C (setting [11]), more than 10 µM. The compound further returned a CC50 at 6 days in [7] of more than 10 µM.
For `CN1CCN(C(=O)N[C@@H](Cc2ccccc2)C(=O)N[C@H](/C=C/S(=O)(=O)c2ccccc2)CCc2ccccc2)CC1` [Compound K117777], in the data set with SARS-CoV-2 (in VeroE6, A549-ACE2 and/or HeLa-ACE2), the “inhibition of SARS-CoV-2” value is “potent inhibition”. Further, in the data set on SARS-CoV-2 (when TMPRSS2 was expressed in A549-ACE2), the antiviral effect entry is reported as “abolished”. Moreover, the “inhibitory effect on the 3CLpro” value at 3CLpro [8] was “lacks an inhibitory effect”.
Turning to `O=C1NCC[C@H]1C[C@H](NC(=O)[C@@H]1[C@H]2CCC[C@H]2CN1C(=O)c1cc2c(OCc3ccccc3)cccc2[nH]1)C(=O)CO` [Compound 133, (1S,3aR,6aS)-2-[4-(benzyloxy)-1H-indole-2-carbonyl]-N-[(2S)-4-hydroxy-3-oxo-1-[(3S)-2-oxopyrrolidin-3-yl]butan-2-yl]-hexahydro-1H-cyclopenta[c]pyrrole-1-carboxamide], the CC50 in “in vitro [4]” and in “in vitro [6]” was more than 50 µM throughout. For the same compound, the EC50 in data set [1] (setting [14]) was less than 0.1 µM; in data set [5] (class symbols), less than 1 µM; in [3] (setting [13]), less than 1 µM. Further, the IC50 is not below 10 µM on human cathepsin L, less than 0.02 µM on 3CLpro [2] (setting [9]) and more than 10 µM at HRV3C (setting [11]). For the same compound, in data set [7], the CC50 at 6 days is more than 10 µM.
In the case of `CC(C)OCCNC(=O)C(=O)[C@H](C[C@@H]1CCNC1=O)NC(=O)[C@@H]1[C@H]2CCC[C@H]2CN1C(=O)c1cc2c(Cl)cc(Cl)cc2[nH]1` [Compound 173], the CC50 in the data set “in vitro [4]” is more than 50 µM; in “in vitro [6]”, 1 to 10 µM. In addition, the 50% effective concentration (EC50) is 0.1 to 1 µM in [1] (setting [14]), 1 to 10 µM in data set [5] (class symbols) and less than 1 µM in data set [3] (setting [13]). Also, the IC50 was not below 10 µM on human cathepsin L, 0.02 to 0.2 µM on 3CLpro [2] (setting [9]) and more than 10 µM on HRV3C (setting [11]). In [7], this compound displayed a CC50 at 6 days of more than 10 µM.
Regarding `COc1cccc2[nH]c(C(=O)N3C[C@@H]4CCC[C@@H]4[C@H]3C(=O)N[C@@H](C[C@@H]3CCNC3=O)C(=O)c3ncc[nH]3)cc12` [Compound 54, (1S,3aR,6aS)—N-[(2S)-1-(1H-imidazol-2-yl)-1-oxo-3-[(3S)-2-oxopyrrolidin-3-yl]propan-2-yl]-2-(4-methoxy-1H-indole-2-carbonyl)-hexahydro-1H-cyclopenta[c]pyrrole-1-carboxamide], the CC50 in “in vitro [4]” and in the data set “in vitro [6]” was more than 100 µM in each case. In addition, the EC50 in data set [1] (setting [14]) was 10 to 100 µM; in data set [5] (numeric bounds), more than 100 µM; in data set [3] (setting [13]), more than 100 µM. For the same compound, the IC50 is not below 10 µM on human cathepsin L; 2 to 20 µM at 3CLpro [2] (setting [9]); more than 10 µM on HRV3C (HRV3C, printed bound without unit, read-out: HRV IC50). In data set [7], this compound yielded a CC50 at 6 days of more than 10 µM.
Regarding `COc1cccc2[nH]c(C(=O)N3Cc4ccccc4[C@H]3C(=O)N[C@@H](C[C@@H]3CCCNC3=O)C(=O)CO)cc12` [Compound 73_1], the EC50 in data set [1] (class symbols) lay within 0.1 to 1 µM. Also, the IC50 against human cathepsin L is not below 10 µM; on 3CLpro [2] (setting [9]), 0.02 to 0.2 µM; on HRV3C (setting [11]), more than 10 µM. In addition, the CC50 in the data set on HeLa cells was more than 10 µM.
On to `COc1cccc2[nH]c(C(=O)N3C[C@]4(C[C@H]3C(=O)NC(C=O)C[C@@H]3CCCNC3=O)CC4(F)F)cc12` (stereo partly drawn) [Compound 29, (3S,6S)-1,1-difluoro-5-(4-methoxy-1H-indole-2-carbonyl)-N-(1-oxo-3-((S)-2-oxopiperidin-3-yl)propan-2-yl)-5-azaspiro[2.4]heptane-6-carboxamide], for which the CC50 in the data set “in vitro [4]” and in the data set “in vitro [6]” was more than 100 µM each time. Moreover, the EC50 in [1] (setting [14]), in data set [5] (class symbols) and in data set [3] (setting [13]) was 1 to 10 µM throughout. For the same compound, the IC50 against human cathepsin L was in the range of 0.1 to 1 µM; at 3CLpro [2] (setting [9]) it was 0.02 to 0.2 µM; on HRV3C (setting [10]), 0.02 to 0.2 µM. The same compound had a CC50 at 6 days in [7] of more than 10 µM.
As to `COCCNC(=O)C(=O)[C@H](C[C@@H]1CCNC1=O)NC(=O)[C@@H]1[C@H]2CCC[C@H]2CN1C(=O)c1cc2c(OC)cccc2[nH]1` [Compound 100, (1S,3aR,6aS)-2-(4-methoxy-1H-indole-2-carbonyl)-N—((S)-4-((2-methoxyethyl)amino)-3,4-dioxo-1-((S)-2-oxopyrrolidin-3-yl)butan-2-yl)octahydrocyclopenta[c]pyrrole-1-carboxamide], the CC50 in the data set “in vitro [4]” was more than 100 µM; in the data set “in vitro [6]”, more than 50 µM. Further, the EC50 in data set [1] (setting [14]) lay in the range of 1 to 10 µM; in data set [5] (class symbols), 10 to 100 µM; in [3] (setting [13]) it was 10 to 100 µM. Further, the IC50 against human cathepsin L was not below 10 µM; at 3CLpro [2] (SARS-Cov-2 IC50, 3CLpro) it was 0.02 to 0.2 µM; against HRV3C (HRV IC50, HRV3C, 30 mins preincubation, class symbols), 0.2 to 2 µM. In addition, in [7], the CC50 at 6 days is more than 10 µM.
As to `COc1cccc2[nH]c(C(=O)N3C[C@@H]4CCC[C@@H]4[C@H]3C(=O)N[C@@H](C[C@@H]3CCNC3=O)C(=O)C(=O)NCCO)cc12` [Compound 107, (1S, 3aR, 6aS)—N—((S)-4-((2-hydroxyethyl)amino)-3,4-dioxo-1-((S)-2-oxopyrrolidin-3-yl)butan-2-yl)-2-(4-methoxy-1H-indole-2-carbonyl)octahydrocyclopenta[c]pyrrole-1-carboxamide], the CC50 in the data set “in vitro [4]” is more than 100 µM; in “in vitro [6]”, more than 50 µM. Further, the EC50 is more than 10 µM in data set [1] (setting [12]), 10 to 100 µM in [5] (class symbols) and 10 to 100 µM in [3] (setting [13]). Further, the half-inhibitory concentration (IC50) at human cathepsin L is not below 10 µM; on 3CLpro [2] (setting [9]) it was less than 0.02 µM; at HRV3C (setting [10]), 0.2 to 2 µM. This compound yielded a CC50 at 6 days in data set [7] of more than 10 µM.
On to `COc1cccc2[nH]c(C(=O)N3C[C@@H]4CCC[C@@H]4[C@H]3C(=O)N[C@@H](C[C@@H]3CCNC3=O)C(=O)COCc3ccccc3)cc12` [Compound 27A, (1S,3aR,6aS)—N-[(2S)-4-(benzyloxy)-3-oxo-1-[(3S)-2-oxopyrrolidin-3-yl]butan-2-yl]-2-(4-methoxy-1H-indole-2-carbonyl)-hexahydro-1H-cyclopenta[c]pyrrole-1-carboxamide], for which the CC50 in the data set “in vitro [4]” is more than 100 µM; in the data set “in vitro [6]” it was more than 10 µM. Further, the figures for the EC50 in data set [1] (setting [14]), in [5] (class symbols) and in data set [3] (setting [13]) were less than 0.1 µM, 1 to 10 µM and 1 to 10 µM, respectively. Further, the half-inhibitory concentration (IC50) on human cathepsin L was not below 10 µM; at 3CLpro [2] (setting [9]) it was 0.02 to 0.2 µM; at HRV3C (setting [10]), 2 to 20 µM. This compound showed a CC50 at 6 days in [7] of more than 10 µM.
